Test results as given in ChEMBL document CHEMBL1201862, “PubChem BioAssay data set” (2004).
Active and inactive are the calls of the source.

How the values were obtained:
cells [1] = assay type: functional, cell-based
[2] = molecular target: 5-hydroxytryptamine receptor 5A (Homo sapiens, UniProt P47898); test: Counterscreen for agonists of OPRM1-OPRD1 heterodimerization: luminescence-based cell-based high throughput dose response assay to identify agonists of 5-hydroxytryptamine (serotonin) 5A receptor (HTR5A). [Related pubchem assays (depositor defined):AID504326, AID504355, AID504692, AID504904, AID504905]; assay type: functional
Mu-type opioid receptor = Mu-type opioid receptor (Homo sapiens, UniProt P35372); test: (§1) Counterscreen for agonists of heterodimerization of the mu 1 (OPRM1) and delta 1 (OPRD1) opioid receptors: Luminescence-based cell-based high throughput dose response assay to identify agonists of OPRM1 homodimerization.; assay type: functional
[3] = molecular target: T1, Short transient receptor potential channel 4 (Mus musculus, UniProt Q9QUQ5); test: mouse TRPC4 channel activators, dose response, cell-based, HEK293 TRPC4/mu-opioid, Fluo-4 calcium (AID 434937); assay type: functional
T1 sequence (Q9QUQ5 whole entry): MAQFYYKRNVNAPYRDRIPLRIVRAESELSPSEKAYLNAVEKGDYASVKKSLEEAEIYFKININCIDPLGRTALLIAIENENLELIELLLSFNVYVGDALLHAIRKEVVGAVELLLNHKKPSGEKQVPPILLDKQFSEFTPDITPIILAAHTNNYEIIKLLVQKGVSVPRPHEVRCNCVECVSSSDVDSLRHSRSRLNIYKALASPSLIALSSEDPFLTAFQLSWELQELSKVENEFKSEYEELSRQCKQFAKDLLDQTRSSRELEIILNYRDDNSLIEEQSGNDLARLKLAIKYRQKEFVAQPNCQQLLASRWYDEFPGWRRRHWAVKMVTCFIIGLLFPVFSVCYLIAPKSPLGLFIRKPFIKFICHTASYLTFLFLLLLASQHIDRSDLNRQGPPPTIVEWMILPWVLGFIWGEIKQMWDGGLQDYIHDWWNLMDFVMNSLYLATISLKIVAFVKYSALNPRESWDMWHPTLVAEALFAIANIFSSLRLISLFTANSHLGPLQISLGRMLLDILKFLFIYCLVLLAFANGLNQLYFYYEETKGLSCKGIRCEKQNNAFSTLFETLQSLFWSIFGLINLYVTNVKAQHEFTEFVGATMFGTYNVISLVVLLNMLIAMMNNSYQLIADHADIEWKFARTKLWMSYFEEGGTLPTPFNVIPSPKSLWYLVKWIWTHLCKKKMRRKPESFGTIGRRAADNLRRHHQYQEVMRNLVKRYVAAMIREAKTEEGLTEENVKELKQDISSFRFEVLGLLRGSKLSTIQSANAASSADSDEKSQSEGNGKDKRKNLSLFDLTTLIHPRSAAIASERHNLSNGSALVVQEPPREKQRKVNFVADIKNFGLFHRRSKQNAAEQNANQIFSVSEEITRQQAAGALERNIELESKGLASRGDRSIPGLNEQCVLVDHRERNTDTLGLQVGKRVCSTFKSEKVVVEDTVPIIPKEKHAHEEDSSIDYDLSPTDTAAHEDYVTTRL

cells [4] = assay type: functional, cell-based; remark: listed apart in the source
[5] = molecular target: Delta-type opioid receptor (Homo sapiens, UniProt P41143); test: as §1, with “of OPRD1” for “of OPRM1”, “homodimerization. [Related pubchem assays (depositor defined):AID504326, AID504355, AID504692, AID504904, AID504905]” for “homodimerization.”; assay type: functional
Escherichia coli [6] = test: microbe, parasite or virus in culture
Streptococcus = test: Group A Streptococcus viability loss, dose response, counter-screen for streptokinase expression inhibitor project, luminescence, BacTiterGlo (AID 1915); assay type: functional, organism-based;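 further: potency for reduction of bacterial viability or growth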
Escherichia coli [7] = test: microbe, parasite or virus in culture; remark: listed apart in the source
[8] = system: Streptococcus sp. 'group A'; test: growth inhibition of control SK(-) GAS strain, dose response, counter-screen for streptokinase expression inhibitor project, luminescence, kanamycin, BacTiterGlo, confirmation (AID 1900); assay type: functional, organism-based
[9] = microbe, parasite or virus in culture; assay type: functional; conditions: Mycobacterium tuberculosis
[10] = molecular target: T2, Endoribonuclease toxin MazF (Escherichia coli K-12, UniProt P0AE70); test: fluorescent RNA oligo signal without MazF, dose response, counter-screen for MazEF activator project, biochemical, fluorescence, single-stranded RNase substrate (AID 588502); assay type: functional
T2 sequence (P0AE70 whole entry): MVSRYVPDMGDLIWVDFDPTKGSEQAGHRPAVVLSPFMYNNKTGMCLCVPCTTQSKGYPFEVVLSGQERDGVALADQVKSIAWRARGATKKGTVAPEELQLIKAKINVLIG

[11] = molecular target: T2, Endoribonuclease toxin MazF; test: MazF toxin RNase activators, dose response, biochemical, fluorescence, single-stranded RNA substrate, uHTS hits (AID 588481); assay type: functional
NS3 = NS3 (Hepatitis C virus, UniProt A3EZJ3); test: PubChem AID 2173; set-up: species or system Hepacivirus hominis
DNA topoisomerase = DNA topoisomerase (Yersinia pestis, UniProt A0A2S9PM60); test: Y. pestis Topo-I inhibitors, cleavage product readout, dose response, biochemical, cherry-pick (AID 588525)
[12] = molecular target: T3, Low molecular weight phosphotyrosine protein phosphatase (Homo sapiens, UniProt P24666); assay type: functional; conditions: read-out: IC50_Mean;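 further: Dose-response confirmation assay measuring inhibition of LMPTP enzyme activity by fluorescence intensity read-out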
T3 sequence (P24666 whole entry): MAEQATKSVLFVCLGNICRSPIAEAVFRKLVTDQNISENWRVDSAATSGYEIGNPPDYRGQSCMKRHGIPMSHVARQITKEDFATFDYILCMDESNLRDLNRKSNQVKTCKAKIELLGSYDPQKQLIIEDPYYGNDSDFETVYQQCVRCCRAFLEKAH

[13] = molecular target: Type-1 angiotensin II receptor (Homo sapiens, UniProt P30556); test: AT1 receptor antagonists, dose response, selectivity assay for APJ receptor antagonist project, cell-based, uHTS hits (AID 463214); assay type: functional;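 further: antagonist potency against angiotensin II stimulated AT1 response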
Beta-galactosidase = Beta-galactosidase (Escherichia coli, UniProt Q8VNN2); test: PubChem AID 485352; assay type: functional
CAAX prenyl protease 2 = CAAX prenyl protease 2 (Homo sapiens, UniProt Q9Y256); test: human Rce1 protease inhibitors, dose response, biochemical, yeast membranes, quenched-peptide fluorescence, cherry-pick (AID 588849)
Trypsin = Trypsin (Sus scrofa, UniProt P00761); test: porcine trypsin inhibitors, dose response, selectivity assay for Rce1 protease inhibitor project, biochemical, quenched peptide fluorescence, cherry-pick (AID 488789)
HeLa = test: HeLa cell cytotoxicity, dose response, cytotoxicity control for MITF activator project, CellTiter-Glo luminescence, cherry-pick samples (AID 540259); assay type: functional, cell-based; conditions: Homo sapiens
CHO = test: cytotoxicity in TLR9-MyD88 CHO cells, dose response, cytotoxicity control for TLR9-MyD88 binding inhibitor project, cell-based, luminescence (AID 588339); assay type: functional, hamster; conditions: Cricetulus griseus;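 further: CHO cells stably coexpressing TLR9 and MyD88 fusions from primary screen; compound exposure lasted 48 hours before viability readout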
Beta Lactamase = Beta Lactamase (Pseudomonas aeruginosa, UniProt Q932Y6); test: beta-lactamase reporter inhibitor potency, dose response, artefact control for TLR9-MyD88 binding inhibitor project, BLA reporter cells, FRET fluorescence (AID 588341); assay type: cell-based;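 further: cell based assay in CHO-K1 cells stably expressing beta-lactamase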
[14] = ZM109 Env clade C HIV-1 fusion inhibitors, dose response, HeLa effector, CEM target cells, luciferase, cherry-pick (AID 652058); assay type: functional, cell-based
[15] = off-target signal loss in HeLa-CEM21 co-culture – HeLa F-luc CTL cells, cherry-picked, counter-screen for HIV-1 Env fusion inhibitor project, dose response (AID 652040); assay type: functional, cell-based;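 further: potency for signal decrease marking cytotoxic or nonspecific inhibition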
[16] = inhibitors of HIV Env-driven cell fusion, dose response, cherry-pick (AID 652057); assay type: functional, cell-based
[17] = CEM21 lymphoblast cell cytotoxicity, dose response, cytotoxicity control for viral fusion inhibitor project, CellTiter-Glo luminescence, cherry-picked (AID 652042); assay type: functional, cell-based;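 further: potency for signal decrease meaning cytotoxicity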
[18] = inhibitors of clade B AD8 Env fusion, dose response, cell-based, cherry-pick (AID 652062); assay type: functional;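 further: luciferase signal from cell-cell fusion driven by HIV-1 clade B AD8 Env; potency is for inhibitors of fusion seen as a drop in luminescence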
[19] = molecular target: Heat shock protein HSP 90-alpha (Homo sapiens, UniProt P07900); assay type: functional, organism-based

5-hydroxytryptamine receptor 5A, sequence (P47898 whole entry): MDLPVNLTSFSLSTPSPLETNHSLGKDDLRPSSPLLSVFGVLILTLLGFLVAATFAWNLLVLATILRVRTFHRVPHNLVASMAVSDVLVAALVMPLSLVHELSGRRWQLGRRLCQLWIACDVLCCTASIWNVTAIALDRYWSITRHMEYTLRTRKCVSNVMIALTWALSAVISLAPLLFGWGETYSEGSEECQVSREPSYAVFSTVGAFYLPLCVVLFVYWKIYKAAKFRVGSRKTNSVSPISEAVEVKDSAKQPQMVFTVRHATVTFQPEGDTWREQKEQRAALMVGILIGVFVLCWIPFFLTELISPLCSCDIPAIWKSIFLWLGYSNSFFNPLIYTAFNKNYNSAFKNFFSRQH
Delta-type opioid receptor, sequence (P41143 whole entry): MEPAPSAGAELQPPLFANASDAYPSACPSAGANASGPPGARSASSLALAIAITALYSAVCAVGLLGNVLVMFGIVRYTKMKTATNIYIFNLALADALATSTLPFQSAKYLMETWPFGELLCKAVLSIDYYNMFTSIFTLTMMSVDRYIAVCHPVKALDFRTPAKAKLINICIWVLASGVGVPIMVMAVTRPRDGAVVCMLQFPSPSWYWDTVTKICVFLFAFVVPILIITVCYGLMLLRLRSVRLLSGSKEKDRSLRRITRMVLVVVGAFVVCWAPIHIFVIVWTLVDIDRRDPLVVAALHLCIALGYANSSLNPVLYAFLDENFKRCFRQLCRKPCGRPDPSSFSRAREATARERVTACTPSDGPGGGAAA
DNA topoisomerase, sequence (A0A2S9PM60 whole entry): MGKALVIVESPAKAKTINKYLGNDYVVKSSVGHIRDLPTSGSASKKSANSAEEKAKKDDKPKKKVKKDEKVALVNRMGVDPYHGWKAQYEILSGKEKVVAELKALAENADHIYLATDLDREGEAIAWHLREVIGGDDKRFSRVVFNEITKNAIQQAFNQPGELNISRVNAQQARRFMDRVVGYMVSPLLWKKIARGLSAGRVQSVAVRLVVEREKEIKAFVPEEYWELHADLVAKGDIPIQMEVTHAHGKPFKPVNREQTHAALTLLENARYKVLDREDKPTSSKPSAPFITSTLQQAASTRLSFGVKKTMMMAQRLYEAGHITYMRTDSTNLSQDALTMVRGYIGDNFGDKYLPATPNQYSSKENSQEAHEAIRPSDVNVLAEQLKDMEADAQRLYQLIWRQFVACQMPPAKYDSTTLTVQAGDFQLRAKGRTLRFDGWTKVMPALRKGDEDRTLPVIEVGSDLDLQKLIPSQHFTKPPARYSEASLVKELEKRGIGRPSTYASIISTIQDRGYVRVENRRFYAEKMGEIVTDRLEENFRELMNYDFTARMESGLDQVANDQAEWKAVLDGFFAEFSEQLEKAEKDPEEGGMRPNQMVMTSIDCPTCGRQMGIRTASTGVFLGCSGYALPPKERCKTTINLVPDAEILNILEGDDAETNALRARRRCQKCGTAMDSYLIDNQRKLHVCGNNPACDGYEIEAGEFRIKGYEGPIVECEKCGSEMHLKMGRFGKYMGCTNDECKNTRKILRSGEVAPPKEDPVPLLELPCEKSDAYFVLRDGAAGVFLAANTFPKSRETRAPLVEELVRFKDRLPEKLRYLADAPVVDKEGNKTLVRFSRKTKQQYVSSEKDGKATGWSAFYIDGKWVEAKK
Mu-type opioid receptor, sequence (P35372 whole entry): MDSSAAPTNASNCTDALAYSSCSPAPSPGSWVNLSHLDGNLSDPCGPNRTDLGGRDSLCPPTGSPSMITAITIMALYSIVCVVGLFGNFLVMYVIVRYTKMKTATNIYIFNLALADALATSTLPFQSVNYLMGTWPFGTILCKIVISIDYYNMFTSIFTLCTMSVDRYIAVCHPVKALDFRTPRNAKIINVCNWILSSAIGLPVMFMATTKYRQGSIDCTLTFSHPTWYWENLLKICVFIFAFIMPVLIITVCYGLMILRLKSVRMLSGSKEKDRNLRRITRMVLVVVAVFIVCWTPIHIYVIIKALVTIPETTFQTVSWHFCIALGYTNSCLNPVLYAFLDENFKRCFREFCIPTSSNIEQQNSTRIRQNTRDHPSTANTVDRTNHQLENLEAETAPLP
NS3, sequence (A3EZJ3 whole entry): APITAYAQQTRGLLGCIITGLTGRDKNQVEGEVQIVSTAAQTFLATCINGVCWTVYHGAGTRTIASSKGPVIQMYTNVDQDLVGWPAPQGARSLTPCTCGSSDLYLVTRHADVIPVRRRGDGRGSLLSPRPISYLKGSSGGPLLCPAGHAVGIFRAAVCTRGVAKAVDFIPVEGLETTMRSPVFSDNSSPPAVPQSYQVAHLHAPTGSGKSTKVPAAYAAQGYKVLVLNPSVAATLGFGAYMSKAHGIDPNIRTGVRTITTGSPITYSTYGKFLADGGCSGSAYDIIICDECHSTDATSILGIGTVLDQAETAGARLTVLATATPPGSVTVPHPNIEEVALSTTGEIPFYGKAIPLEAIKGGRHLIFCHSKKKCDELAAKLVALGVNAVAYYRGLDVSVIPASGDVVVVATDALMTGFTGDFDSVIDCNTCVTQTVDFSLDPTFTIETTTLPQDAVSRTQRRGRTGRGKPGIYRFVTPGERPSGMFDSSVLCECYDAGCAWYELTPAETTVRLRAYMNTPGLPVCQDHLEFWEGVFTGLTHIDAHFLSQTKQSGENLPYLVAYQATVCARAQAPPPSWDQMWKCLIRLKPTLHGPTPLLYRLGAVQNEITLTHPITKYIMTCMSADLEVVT
Beta-galactosidase, sequence (Q8VNN2 whole entry): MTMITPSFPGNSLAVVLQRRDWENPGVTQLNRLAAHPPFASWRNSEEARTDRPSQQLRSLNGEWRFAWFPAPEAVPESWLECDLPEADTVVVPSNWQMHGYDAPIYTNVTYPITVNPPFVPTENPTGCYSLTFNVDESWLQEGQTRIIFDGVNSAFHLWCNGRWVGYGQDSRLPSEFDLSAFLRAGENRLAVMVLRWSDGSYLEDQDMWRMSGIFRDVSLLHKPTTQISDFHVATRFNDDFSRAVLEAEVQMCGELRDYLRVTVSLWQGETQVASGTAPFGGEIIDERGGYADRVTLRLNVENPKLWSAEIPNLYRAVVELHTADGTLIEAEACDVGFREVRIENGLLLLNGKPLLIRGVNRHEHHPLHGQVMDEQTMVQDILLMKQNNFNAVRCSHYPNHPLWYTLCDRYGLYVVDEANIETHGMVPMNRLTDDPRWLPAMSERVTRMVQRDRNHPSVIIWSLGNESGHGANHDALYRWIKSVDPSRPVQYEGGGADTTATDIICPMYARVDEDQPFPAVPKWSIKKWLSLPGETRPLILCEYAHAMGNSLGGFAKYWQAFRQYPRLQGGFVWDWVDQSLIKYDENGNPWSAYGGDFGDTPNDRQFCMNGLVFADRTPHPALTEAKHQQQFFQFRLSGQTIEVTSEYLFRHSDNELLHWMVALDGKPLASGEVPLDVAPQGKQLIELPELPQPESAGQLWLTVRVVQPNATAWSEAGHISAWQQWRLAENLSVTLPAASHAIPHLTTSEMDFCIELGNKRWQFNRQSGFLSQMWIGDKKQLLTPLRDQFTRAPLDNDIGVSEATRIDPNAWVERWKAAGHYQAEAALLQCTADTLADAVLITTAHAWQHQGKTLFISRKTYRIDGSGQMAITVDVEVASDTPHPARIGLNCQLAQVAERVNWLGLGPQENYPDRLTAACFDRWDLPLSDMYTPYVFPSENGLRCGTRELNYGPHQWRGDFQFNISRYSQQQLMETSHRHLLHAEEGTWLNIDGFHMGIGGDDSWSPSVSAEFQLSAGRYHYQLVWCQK
Type-1 angiotensin II receptor, sequence (P30556 whole entry): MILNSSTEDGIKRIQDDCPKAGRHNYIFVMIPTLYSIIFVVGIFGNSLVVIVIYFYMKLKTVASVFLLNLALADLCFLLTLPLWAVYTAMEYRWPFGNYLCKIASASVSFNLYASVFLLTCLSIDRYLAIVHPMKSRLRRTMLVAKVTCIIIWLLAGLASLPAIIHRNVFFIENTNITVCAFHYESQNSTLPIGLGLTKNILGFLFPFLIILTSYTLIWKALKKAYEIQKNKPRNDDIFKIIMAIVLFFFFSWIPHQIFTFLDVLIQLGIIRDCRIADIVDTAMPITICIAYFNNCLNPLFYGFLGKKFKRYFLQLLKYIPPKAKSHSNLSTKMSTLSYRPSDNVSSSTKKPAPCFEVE
Beta Lactamase, sequence (Q932Y6 whole entry, the tested form may be a part): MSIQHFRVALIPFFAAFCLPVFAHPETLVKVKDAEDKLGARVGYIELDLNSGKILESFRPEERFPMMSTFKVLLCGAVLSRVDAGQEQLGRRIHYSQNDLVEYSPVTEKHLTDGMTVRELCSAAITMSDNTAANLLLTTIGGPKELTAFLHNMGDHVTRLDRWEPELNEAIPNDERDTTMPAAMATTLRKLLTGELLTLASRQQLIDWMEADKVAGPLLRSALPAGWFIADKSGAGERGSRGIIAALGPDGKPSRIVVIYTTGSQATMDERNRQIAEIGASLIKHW
Trypsin, sequence (P00761 whole entry): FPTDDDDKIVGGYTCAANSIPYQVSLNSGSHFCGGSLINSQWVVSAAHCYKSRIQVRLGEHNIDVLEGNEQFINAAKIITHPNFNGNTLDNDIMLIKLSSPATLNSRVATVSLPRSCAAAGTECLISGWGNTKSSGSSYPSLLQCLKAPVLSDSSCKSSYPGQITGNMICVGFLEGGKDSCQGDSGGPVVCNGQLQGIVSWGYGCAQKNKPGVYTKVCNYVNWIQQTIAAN
CAAX prenyl protease 2, sequence (Q9Y256 whole entry): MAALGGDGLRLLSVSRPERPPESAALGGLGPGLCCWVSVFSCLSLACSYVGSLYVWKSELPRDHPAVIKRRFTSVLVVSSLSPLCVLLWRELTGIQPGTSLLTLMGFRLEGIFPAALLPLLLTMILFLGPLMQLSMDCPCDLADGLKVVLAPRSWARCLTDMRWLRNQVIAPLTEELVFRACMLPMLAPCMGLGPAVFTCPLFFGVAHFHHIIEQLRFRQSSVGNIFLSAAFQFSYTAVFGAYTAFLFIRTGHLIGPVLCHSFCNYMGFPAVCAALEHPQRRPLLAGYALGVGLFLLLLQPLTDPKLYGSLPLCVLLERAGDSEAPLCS

In the case of Cc1ccc(C2(O)C[N+](c3ccccc3C)=C3SCCN32)cc1 (centres undefined), the EC50 (cells [1]) is reported as > 350 µM (not active), the EC50 [2] is reported as > 92.5 µM (inactive) and the EC50 (Mu-type opioid receptor) is reported as 2.83 µM (active). For the same molecule, the EC50 [3] was 0.376 µM (active), the EC50 (cells [4]) was > 350 µM (not active) and the EC50 [5] was > 92.5 µM (inactive).

For CN(C)[C@@H]1C(=O)C(C(N)=O)=C(O)[C@@]2(O)C(O)=C3C(=O)c4c(O)cccc4[C@@](C)(O)C3C[C@@H]12 (some centres undefined), the AC50 (Escherichia coli [6]) was 19.9 µM (active), the EC50 (Streptococcus) was 0.098 µM (active) and the AC50 (Escherichia coli [7]) was 1.17 µM (active). The EC50 [8] was 0.099 µM (active) and the CC50 [9] was > 40 µM (active).

For Cc1cccc(NC(=O)c2ccc(NCCc3ccccc3)c([N+](=O)[O-])c2)c1, the EC50 [10] was > 99 µM (inactive) and the EC50 [11] was 17.9 µM (active).

For COc1c(N2CCN(C(S)=NCc3ccccc3)C(C)C2)c(F)cc2c(=O)c(C(=O)O)cn(C3CC3)c12 (centres undefined), the IC50 (NS3) was 14.9 µM (not active), the AC50 (DNA topoisomerase) was 27.8 µM (active) and the IC50 [12] was 5.55 µM (active).

For CC(=O)c1ccc(NC(=O)CCC(=O)OCC(=O)c2cccc([N+](=O)[O-])c2)cc1, the IC50 [13] was 34.5 µM (not active) and the EC50 (Beta-galactosidase) was > 40 µM (inactive).

In the case of CC(=O)Oc1ccc2c(c1)OC(c1ccccc1)CC21CC(C)(C)N=C(S)N1 (centres undefined), the AC50 (Escherichia coli [6]) is reported as 31.7 µM (active).

With Cc1c(C)c2c(OCC(=O)NCc3ccncc3)cc3c(c2oc1=O)CCC(C)(C)O3 the AC50 (CAAX prenyl protease 2) was 0.759 µM (active) and the AC50 (Trypsin) was 5.4 µM (active).

For COc1ccc2c(c1)oc(=O)c1cc(OC)ccc12, the AC50 (HeLa) was 46.8 µM (active).

For Nc1c(C(=O)Nc2ccccc2F)sc2nc(-c3cccnc3)ccc12, the IC50 (CHO) was 21.7 µM (inactive) and the IC50 (Beta Lactamase) was 14 µM (inactive).

In the case of Cc1ccc(CSC2=Nc3ccccc3C3=NC(=O)CN23)cc1, the AC50 (DNA topoisomerase) is reported as 2.02 µM (active).

With COc1ccc(C)cc1S(=O)(=O)N(CC(=O)NC1CCCC1)c1ccc(F)cc1 the AC50 (Escherichia coli [7]) was 37.2 µM (active).

With COc1ccc(CNCCc2c[nH]c3ccccc23)c(OC)c1C the EC50 [2] was 78.4 µM (inactive), the AC50 [14] was 7.75 µM (active) and the AC50 [15] was 5.48 µM (active). For the same molecule, the EC50 (Mu-type opioid receptor) was 59.5 µM (inactive), the EC50 [3] was 0.841 µM (active) and the AC50 [16] was 2.44 µM (active). For the same molecule, the AC50 [17] was 24.9 µM (active), the AC50 [18] was 14.3 µM (active) and the EC50 [5] was > 92.5 µM (inactive).

With c1ccc2cc(C3CCCCC3)ncc2c1 the AC50 (HeLa) was 36.7 µM (active).

In the case of COC[C@H]1OC(=O)c2coc3c2[C@@]1(C)C1=C(C3=O)[C@@H]2CCC(=O)[C@@]2(C)C[C@H]1OC(C)=O [WORTMANNIN], the EC50 [10] is reported as > 99 µM (inactive), the EC50 [11] is reported as > 99 µM (inactive) and the AC50 [19] is reported as 0.363 µM (active).
